This passage reports Kd results from publication PMC9538320 (Protein Science : A Publication of the Protein Society, 2022).

Each structure is given as a SMILES string.

The target of this test is SARS-CoV-2 protein 7a ectodomain (protein 7a ECD) (Severe acute respiratory syndrome coronavirus 2, UniProt P0DTC7). The experiment in a line: biochemical.
SARS-CoV-2 protein 7a ectodomain (protein 7a ECD), sequence (P0DTC7 16-95): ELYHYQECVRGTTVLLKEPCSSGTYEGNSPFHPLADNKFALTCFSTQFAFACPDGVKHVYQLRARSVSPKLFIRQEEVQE

Consider `C=CC1=C(C)C2=Cc3c(C=C)c(C)c4[n]3[Fe]([Cl])[n]3c(c(C)c(CCC(=O)O)c3=CC3=NC(=C4)C(C)=C3CCC(=O)O)=CC1=N2` [heme], for which the equilibrium dissociation constant (Kd) (as a rule, the concentration at which binding is half-saturated) amounted to 0.469 ± 0.027 µM.
